Source: PMC7665585, “Antidepressive effect of an inward rectifier K^+ channel blocker peptide, tertiapin-RQ” (PLoS ONE, 2020)
Bridge positions count the residues as written; N and C are the ends. Peptide text beside a SMILES is read from it.

Legend:
[1] = target: T1, mouse GIRK1/4 (Mus musculus, UniProt P48545+P63250); assay: Whole-cell patch-clamp of GIRK1/4 in transfected 293T cells; assay type: cell-based; settings: 293T cells transiently expressing mouse GIRK1/4, high K+ Tyrode solution (Fig 7); read-out: IC50, GIRK1/4 conductance
T1 construct: expressed in transfected cells; host or cells: 293T cells, transient calcium phosphate transfection, pCMV6 plasmid
T1 sequence (P63250 1-501): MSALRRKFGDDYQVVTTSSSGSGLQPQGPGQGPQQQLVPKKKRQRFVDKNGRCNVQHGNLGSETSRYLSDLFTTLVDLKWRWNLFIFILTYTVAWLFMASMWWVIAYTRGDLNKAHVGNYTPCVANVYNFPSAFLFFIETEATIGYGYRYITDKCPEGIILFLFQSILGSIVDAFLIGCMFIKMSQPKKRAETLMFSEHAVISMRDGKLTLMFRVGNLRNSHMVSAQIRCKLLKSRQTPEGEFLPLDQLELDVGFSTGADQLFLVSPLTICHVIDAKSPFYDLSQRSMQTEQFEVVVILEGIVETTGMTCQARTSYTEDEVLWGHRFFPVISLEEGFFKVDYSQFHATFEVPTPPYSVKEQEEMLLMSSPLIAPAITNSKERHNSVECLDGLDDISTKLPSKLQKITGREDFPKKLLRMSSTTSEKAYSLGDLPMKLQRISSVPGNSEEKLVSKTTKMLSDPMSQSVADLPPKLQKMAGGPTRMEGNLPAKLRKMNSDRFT
T1 sequence (P48545 1-419): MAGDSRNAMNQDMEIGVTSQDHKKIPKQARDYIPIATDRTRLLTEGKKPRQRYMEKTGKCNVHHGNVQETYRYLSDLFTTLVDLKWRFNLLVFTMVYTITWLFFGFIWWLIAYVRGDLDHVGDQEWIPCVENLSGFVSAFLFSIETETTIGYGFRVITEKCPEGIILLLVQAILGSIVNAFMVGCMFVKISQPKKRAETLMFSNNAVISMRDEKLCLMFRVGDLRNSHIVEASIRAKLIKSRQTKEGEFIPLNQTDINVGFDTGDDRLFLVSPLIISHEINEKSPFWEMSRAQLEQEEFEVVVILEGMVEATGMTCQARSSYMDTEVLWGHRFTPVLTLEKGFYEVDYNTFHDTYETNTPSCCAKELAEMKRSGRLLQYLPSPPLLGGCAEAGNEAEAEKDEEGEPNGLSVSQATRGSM
Source text: The cDNAs for rat ROMK and mouse GIRK1, 2, and 4 were generously donated by Drs Mikio Hayashi (Kansai Medical University) and David Weaver (Vanderbilt University). The ROMK channels were stably expressed by a cell line, 208–4, which was transduced with lentiviral vectors coexpressing the channel and green fluorescent protein (GFP) as described previously. The GIRK genes, cloned in a pCMV6 plasmid (Origene Technologies Inc, Rockville, MD), were transiently expressed in 293T cells with calcium phosphate transfection. GIRK channel currents were recorded 24 h after transfection.
Cells grown on small cover glasses (3 × 18 mm) were placed in a recording chamber. Whole-cell currents were recorded in Tyrode solution using an Axopatch 200B amplifier (Axon Instruments, Foster City, CA) at 25°C. Tyrode solution contained (in mM): NaCl 140, KCl 5.4, NaH2PO4 0.33, CaCl2 2, MgCl2 1, HEPES 5, and glucose 5.5 (pH 7.4 adjusted with NaOH). […] Whole-cell currents were recorded 60 sec after the peptide application and those from 100 to 300 msec of the step pulses were averaged. […] Whole-cell conductance was calculated as the slope of the current-voltage (I-V) relationship from -140 mV to -100 mV and normalized to the initial value (0 μM TPN), in which BaCl2-resistant current was subtracted and indicted as a percentage.

[2] = test system: Male ICR mice; assay: Balance beam test; assay type: in vivo, mouse; settings: i.c.v.; 10 mm and 6 mm beams, central 60 cm
Protocol: We performed mouse behavioral experiments in accordance with our previous study. Male ICR mice (n = 199 in total) aged 5 weeks old were purchased from Shimizu Laboratory Supplies (Kyoto, Japan) and maintained in an animal facility for 7–12 days. They had free access to food and water and were kept in a 12-h light/dark cycle (08:00–20:00). Experiments were carried out between 11:00 and 17:00 in a quiet and air-conditioned experimental room, to which mice were habituated for 30–60 min before each experiment. Animal experiments were performed in accordance with the guidelines of the Physiological Society of Japan and were approved by the Committee for Animal Experiments of Kurashiki University of Science and the Arts. Peptides were dissolved in phosphate-buffered saline (PBS). Peptides were injected intracerebroventricularly (i.c.v.) 30 min before behavioral tests (typically 5 μL/mouse), according to a previous study. The mouse was placed into an anesthetizing jar, to which isoflurane (0.2 mL) was added immediately before. […]
Motor coordination was assessed by measuring the ability to traverse a narrow beam to reach a familiar cage. […] The time required to cross the central 60 cm of the beam was measured.

[3] = test system: Male ICR mice; assay: Open field test (OFT); assay type: in vivo, mouse; settings: i.c.v., 5 min
Protocol: We performed mouse behavioral experiments in accordance with our previous study. Male ICR mice (n = 199 in total) aged 5 weeks old were purchased from Shimizu Laboratory Supplies (Kyoto, Japan) and maintained in an animal facility for 7–12 days. They had free access to food and water and were kept in a 12-h light/dark cycle (08:00–20:00). Experiments were carried out between 11:00 and 17:00 in a quiet and air-conditioned experimental room, to which mice were habituated for 30–60 min before each experiment. Animal experiments were performed in accordance with the guidelines of the Physiological Society of Japan and were approved by the Committee for Animal Experiments of Kurashiki University of Science and the Arts. Peptides were dissolved in phosphate-buffered saline (PBS). Peptides were injected intracerebroventricularly (i.c.v.) 30 min before behavioral tests (typically 5 μL/mouse), according to a previous study. The mouse was placed into an anesthetizing jar, to which isoflurane (0.2 mL) was added immediately before. After confirming that the mouse was deeply anesthetized we injected the peptide into the right cerebral ventricle over 30 seconds and the injection needle was kept for 1 min after the injection (i.c.v. coordinates: 0 mm caudal to bregma, 1.0 mm lateral to the midline, and 3.5 mm below the skull). The mouse was placed in a cage set on a heating pad (approximately 33°C) for a few minutes until it spontaneously started to move, and then it was put back into its home cage. Each animal was used only once, except for the wheel running test, which was carried out immediately after the elevated plus-maze.
The open-field test (OFT) was performed in accordance with a previous report. The open-field consisted of a square (90 × 90 cm), in which the floor was divided into 16 equal squares. After a mouse was placed in a corner of the open field facing the wall, the number of the entries into the central squares and whole line crossings were counted for 5 min. After the removal of the animal, the apparatus was cleaned and wiped.

SMILES: CC[C@H](C)[C@@H]1NC(=O)[C@H](CCCNC(=N)N)NC(=O)[C@H](CCCNC(=N)N)NC(=O)[C@H](CC(N)=O)NC(=O)[C@@H]2CSSC[C@@H](C(=O)NCC(=O)N[C@@H](CCCCN)C(=O)N[C@@H](CCCCN)C(N)=O)NC(=O)[C@H](CCCCN)NC(=O)[C@H](CCCCN)NC(=O)[C@H](Cc3c[nH]c4ccccc34)NC(=O)[C@H](CSSC[C@H](NC(=O)[C@H](CC(C)C)NC(=O)[C@H](C)N)C(=O)N[C@@H](CC(N)=O)C(=O)N2)NC(=O)[C@H](CCC(N)=O)NC(=O)[C@H](Cc2c[nH]cn2)NC(=O)[C@@H]2CCCN2C(=O)[C@H]([C@@H](C)CC)NC1=O [Peptide 2, TPN-RQ] (H-ALCNCNRRIIPHQCWKKCGKK-NH2; disulfide 3-14, 5-18)
- IC50 [1]: 1250 nM
- time required to cross the beam [2]: longer

SMILES: CC[C@H](C)[C@@H]1NC(=O)[C@H](CCCNC(=N)N)NC(=O)[C@H](CC(N)=O)NC(=O)[C@@H]2CSSC[C@@H](C(=O)NCC(=O)N[C@@H](CCCCN)C(=O)N[C@@H](CCCCN)C(N)=O)NC(=O)[C@H](CCCCN)NC(=O)[C@H](CCCCN)NC(=O)[C@H](Cc3c[nH]c4ccccc34)NC(=O)[C@H](CSSC[C@H](NC(=O)[C@H](CC(C)C)NC(=O)[C@H](C)N)C(=O)N[C@@H](CC(N)=O)C(=O)N2)NC(=O)[C@H](CCC(N)=O)NC(=O)[C@H](CC(C)C)NC(=O)[C@@H]2CCCN2C(=O)[C@H]([C@@H](C)CC)NC(=O)[C@H]([C@@H](C)CC)NC1=O [Peptide 3, TPN-LQ] (H-ALCNCNRIIIPLQCWKKCGKK-NH2; disulfide 3-14, 5-18; N-terminus and C-terminus assumed)
- entries to the central area in OFT [3]: decreased
- number of total line crossings in OFT [3]: decreased
- central line crossings in OFT ([3]; n = 6 and 7): decreased
